Source: US10760110B2, “Antibiotic testing and screening system” (priority 2017, dated 2020)
Where two headings read alike, the source gives them in different places.

Key:
[1] = tested on: K. pneumoniae NVT1001 gyrA/parC and gyrA/parC/ramR mutants and revertants; assay: Etest MIC of quinolones, gyrA/parC and gyrA/parC/ramR mutants and their revertants (Table 11); type: cell-based; conditions: Klebsiella pneumoniae
Description: The allelic-exchange method was used to restore the wild-type gene in the K. pneumoniae NVT1001 mutants with constructed chromosome-mediated resistance mechanisms, as described by Tsai et al.^19 Briefly, a DNA fragment of the entire wild-type gene sequence along with flanking regions was amplified from K. pneumoniae NVT1001 using PCR with specific primers. The resulting PCR fragment was digested and then cloned into pUT-KB. For homologous recombination, this plasmid was transformed into E. coli S17-1 λpir^23 via electroporation and mobilized into the K. pneumoniae NVT1001 mutant via conjugation. […] After incubation in 20 mL BHI broth for 6 hours at 37° C. in the absence of kanamycin, the fully grown cultures were spread onto LB agar plates supplemented with 10% sucrose. After the double crossover occurred, the sucrose-resistant and kanamycin-susceptible colonies were selected, and the restoration of the wild-type gene was confirmed via DNA sequencing.
(§1) The MICs of antibiotics were determined using the Etest (Biodisk AB, Sweden) according to the manufacturer's instructions. The MICs from the Etest, which fall between standard two-fold dilutions, were rounded up to the next highest two-fold value. The MICs of ceftazidime and cefotaxime against K. pneumoniae NVT1001 harbouring the pACYC177 plasmid with blaOXA-48 were further determined using a broth microdilution test according to the recommendations of the CLSI,^25 and the results were interpreted according to the breakpoints established by the CLSI in 2017.^25 Meanwhile, due to the lack of CLSI breakpoints in 2016 and 2017, the results for cephalothin were interpreted according to the breakpoints established by the CLSI in 2015,^26 and the results for moxifloxacin were interpreted according to the breakpoints established by the EUCAST in 2017.^27

[2] = tested on: K. pneumoniae NVT1001 and its GyrA/ParC and ΔramR mutants; assay: Etest MIC of quinolones, GyrA/ParC mutations and AcrAB-TolC overexpression (ΔramR) (Table 10); type: cell-based; conditions: Klebsiella pneumoniae
Description: DNA fragments of the entire gyrA and parC sequences along with their flanking regions were amplified from K. pneumoniae strain NVT1001 using PCR with specific primer pairs and then cloned into the plasmid pUT-KB. The QuikChange site-directed mutagenesis kit (Stratagene) was used to generate mutations in the gyrA and parC genes in the plasmid using the methods described by the manufacturer. For homologous recombination, plasmids containing mutations in the gyrA or parC gene were transformed into E. coli S17-1 λpir^23 via electroporation and mobilized into K. pneumoniae strain NVT1001 via conjugation. Single-crossover strains were selected from BIND plates supplemented with kanamycin (50 mg/L), as the growth of non-K. pneumoniae contaminants is suppressed on BIND plates.^24 After the kanamycin-resistant transconjugants were selected, the insertion of plasmids was verified via PCR. After incubation in 20 mL BHI broth for 6 hours at 37° C. in the absence of kanamycin, the fully grown cultures were spread onto LB agar plates supplemented with 10% sucrose. After the double crossover occurred, the sucrose-resistant and kanamycin-susceptible colonies were selected, and the gene mutations were confirmed via PCR.
as §1

[3] = S83F/D87N/S80I::F83S/N87D/I80S revertant, read-out: MIC
[4] = S83F/D87N/S80I::I80S revertant, read-out: MIC
[5] = S83F/D87N/S80I::N87D revertant, read-out: MIC
[6] = S83F/D87N/S80I::N87D/I80S revertant, read-out: MIC
[7] = S83I/D87N/S80I::I80S revertant, read-out: MIC
[8] = S83I/D87N/S80I::I83S/N87D/I80S revertant, read-out: MIC
[9] = S83I/D87N/S80I::N87D revertant, read-out: MIC
[10] = S83I/D87N/S80I::N87D/I80S revertant, read-out: MIC
[11] = S83L/D87N/S80I::I80S revertant, read-out: MIC
[12] = S83L/D87N/S80I::L83S/N87D/I80S revertant, read-out: MIC
[13] = S83L/D87N/S80I::N87D revertant, read-out: MIC
[14] = S83L/D87N/S80I::N87D/I80S revertant, read-out: MIC
[15] = S83Y/D87N/S80I::I80S revertant, read-out: MIC
[16] = S83Y/D87N/S80I::N87D revertant, read-out: MIC
[17] = S83Y/D87N/S80I::N87D/I80S revertant, read-out: MIC
[18] = S83Y/D87N/S80I::Y83S/N87D/I80S revertant, read-out: MIC
[19] = ΔramR/S83I/D87N/S80I:: ramR/I83S revertant
[20] = ΔramR/S83I/D87N/S80I:: ramR/I83S/I80S revertant
[21] = ΔramR/S83I/D87N/S80I:: ramR/I83S/N87D revertant
[22] = ΔramR/S83I/D87N/S80I::I83S/N87D/I80S revertant
[23] = ΔramR/S83I/D87N/S80I::N87D revertant
[24] = ΔramR/S83I/D87N/S80I::N87D/I80S revertant
[25] = ΔramR/S83I/D87N/S80I::ramR/I83S/N87D/I80S

SMILES: CCn1cc(C(=O)O)c(=O)c2ccc(C)nc21 [Nalidixic acid, nalidixic acid]
- MIC ([1]; S83F/D87N/S80I mutant): > 256 µg/mL
- MIC [1, 3]: 4 µg/mL
- MIC [1, 4]: > 256 µg/mL
- MIC [1, 5]: > 256 µg/mL
- MIC [1, 6]: > 256 µg/mL
- MIC ([1]; S83I/D87N/S80I mutant): > 256 µg/mL
- MIC [1, 7]: > 256 µg/mL
- MIC [1, 8]: 4 µg/mL
- MIC [1, 9]: > 256 µg/mL
- MIC [1, 10]: > 256 µg/mL
- MIC ([1]; S83L/D87N/S80I mutant): > 256 µg/mL
- MIC [1, 11]: > 256 µg/mL
- MIC [1, 12]: 4 µg/mL
- MIC [1, 13]: > 256 µg/mL
- MIC [1, 14]: > 256 µg/mL
- MIC ([1]; S83Y/D87N/S80I mutant): > 256 µg/mL
- MIC [1, 15]: > 256 µg/mL
- MIC [1, 16]: > 256 µg/mL
- MIC [1, 17]: > 256 µg/mL
- MIC [1, 18]: 8 µg/mL
- MIC ([1]; ΔramR/S83I/D87N/S80I mutant): > 256 µg/mL
- MIC [1, 19]: > 256 µg/mL
- MIC [1, 20]: > 256 µg/mL
- MIC [1, 21]: 8 µg/mL
- MIC [1, 22]: 32 µg/mL
- MIC [1, 23]: > 256 µg/mL
- MIC [1, 24]: > 256 µg/mL
- MIC [1, 25]: 8 µg/mL
- MIC ([2]; D87N mutant (GyrA D87N)): > 256 µg/mL
- MIC ([2]; D87N/S80I mutant): > 256 µg/mL
- MIC ([2]; NVT1001, read-out: MIC): 4 µg/mL
- MIC ([2]; S80I mutant (ParC S80I)): 8 µg/mL
- MIC ([2]; S83F mutant (GyrA S83F)): > 256 µg/mL
- MIC ([2]; S83F/D87N mutant): > 256 µg/mL
- MIC ([2]; S83F/D87N/S80I mutant): > 256 µg/mL
- MIC ([2]; S83F/S80I mutant): > 256 µg/mL
- MIC ([2]; S83I mutant (GyrA S83I)): > 256 µg/mL
- MIC ([2]; S83I/D87N mutant): > 256 µg/mL
- MIC ([2]; S83I/D87N/S80I mutant): > 256 µg/mL
- MIC ([2]; S83I/S80I mutant): > 256 µg/mL
- MIC ([2]; S83L mutant (GyrA S83L)): > 256 µg/mL
- MIC ([2]; S83L/D87N mutant): > 256 µg/mL
- MIC ([2]; S83L/D87N/S80I mutant): > 256 µg/mL
- MIC ([2]; S83L/S80I mutant): > 256 µg/mL
- MIC ([2]; S83Y mutant (GyrA S83Y)): > 256 µg/mL
- MIC ([2]; S83Y/D87N mutant): > 256 µg/mL
- MIC ([2]; S83Y/D87N/S80I mutant): > 256 µg/mL
- MIC ([2]; S83Y/S80I mutant): > 256 µg/mL
- MIC ([2]; ΔramR mutant): 32 µg/mL
- MIC ([2]; ΔramR/S83I mutant): > 256 µg/mL
- MIC ([2]; ΔramR/S83I/D87N/S80I mutant): > 256 µg/mL
- MIC ([2]; ΔramR/S83I/S801 mutant): > 256 µg/mL

SMILES: CCn1cc(C(=O)O)c(=O)c2cc(F)c(N3CCNCC3)cc21 [Norfloxacin, norfloxacin]
- MIC ([1]; S83F/D87N/S80I mutant): 32 µg/mL
- MIC [1, 3]: 0.25 µg/mL
- MIC [1, 4]: 2 µg/mL
- MIC [1, 5]: 4 µg/mL
- MIC [1, 6]: 2 µg/mL
- MIC ([1]; S83I/D87N/S80I mutant): 64 µg/mL
- MIC [1, 7]: 2 µg/mL
- MIC [1, 8]: 0.25 µg/mL
- MIC [1, 9]: 16 µg/mL
- MIC [1, 10]: 2 µg/mL
- MIC ([1]; S83L/D87N/S80I mutant): 64 µg/mL
- MIC [1, 11]: 2 µg/mL
- MIC [1, 12]: 0.25 µg/mL
- MIC [1, 13]: 8 µg/mL
- MIC [1, 14]: 2 µg/mL
- MIC ([1]; S83Y/D87N/S80I mutant): 32 µg/mL
- MIC [1, 15]: 2 µg/mL
- MIC [1, 16]: 4 µg/mL
- MIC [1, 17]: 2 µg/mL
- MIC [1, 18]: 0.25 µg/mL
- MIC ([1]; ΔramR/S83I/D87N/S80I mutant): > 256 µg/mL
- MIC [1, 19]: 2 µg/mL
- MIC [1, 20]: 1 µg/mL
- MIC [1, 21]: 0.25 µg/mL
- MIC [1, 22]: 2 µg/mL
- MIC [1, 23]: 128 µg/mL
- MIC [1, 24]: 8 µg/mL
- MIC [1, 25]: 0.25 µg/mL
- MIC ([2]; D87N mutant (GyrA D87N)): 2 µg/mL
- MIC ([2]; D87N/S80I mutant): 2 µg/mL
- MIC ([2]; NVT1001, read-out: MIC): 0.25 µg/mL
- MIC ([2]; S80I mutant (ParC S80I)): 0.25 µg/mL
- MIC ([2]; S83F mutant (GyrA S83F)): 2 µg/mL
- MIC ([2]; S83F/D87N mutant): 2 µg/mL
- MIC ([2]; S83F/D87N/S80I mutant): 32 µg/mL
- MIC ([2]; S83F/S80I mutant): 8 µg/mL
- MIC ([2]; S83I mutant (GyrA S83I)): 2 µg/mL
- MIC ([2]; S83I/D87N mutant): 2 µg/mL
- MIC ([2]; S83I/D87N/S80I mutant): 64 µg/mL
- MIC ([2]; S83I/S80I mutant): 16 µg/mL
- MIC ([2]; S83L mutant (GyrA S83L)): 2 µg/mL
- MIC ([2]; S83L/D87N mutant): 2 µg/mL
- MIC ([2]; S83L/D87N/S80I mutant): 64 µg/mL
- MIC ([2]; S83L/S80I mutant): 8 µg/mL
- MIC ([2]; S83Y mutant (GyrA S83Y)): 2 µg/mL
- MIC ([2]; S83Y/D87N mutant): 2 µg/mL
- MIC ([2]; S83Y/D87N/S80I mutant): 32 µg/mL
- MIC ([2]; S83Y/S80I mutant): 8 µg/mL
- MIC ([2]; ΔramR mutant): 2 µg/mL
- MIC ([2]; ΔramR/S83I mutant): 8 µg/mL
- MIC ([2]; ΔramR/S83I/D87N/S80I mutant): > 256 µg/mL
- MIC ([2]; ΔramR/S83I/S801 mutant): 128 µg/mL
